pIC50: −log10 of the molar value. Read-outs that look alike come from different tables or passages of the source.
Tests used:
[1] = system: rat Cyp11B enzyme (rat adrenal mitochondria); test: CYP11B enzymatic assay (% inhibition at 100 nM) (Biological Example 9); format: biochemical; conditions: for Biological Example No. 9: CYP11B percent inhibition at 100 nM: 100 nM compound, cortisol by ELISA; for CYP11B enzymatic assay % inhibition at 100 nM (Biological Example No. 9): compound at 100 nM
In short: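 Sprague Dawley rat adrenal mitochondria were incubated with compound at 100 nM, 0.5 mM NADPH and 0.1 μM 11-deoxycortisol (pH 7.4 Tris buffer) for 60 min at 37 °C. Cortisol was measured by ELISA and corrected by subtracting the no-NADPH background. % inhibition is relative to the no-compound reaction.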

[2] = target: T1, Cyp21 enzyme (Human HEK 293-Cyp21 stable transfected cells) (Homo sapiens, UniProt P08686); test: CYP21-HEK293 enzymatic assay (% inhibition at 100 nM) (Biological Example 10); format: cell-based; conditions: HEK 293-Cyp21 cells
T1 construct: expressed in transfected cells
T1 sequence (P08686 1-495): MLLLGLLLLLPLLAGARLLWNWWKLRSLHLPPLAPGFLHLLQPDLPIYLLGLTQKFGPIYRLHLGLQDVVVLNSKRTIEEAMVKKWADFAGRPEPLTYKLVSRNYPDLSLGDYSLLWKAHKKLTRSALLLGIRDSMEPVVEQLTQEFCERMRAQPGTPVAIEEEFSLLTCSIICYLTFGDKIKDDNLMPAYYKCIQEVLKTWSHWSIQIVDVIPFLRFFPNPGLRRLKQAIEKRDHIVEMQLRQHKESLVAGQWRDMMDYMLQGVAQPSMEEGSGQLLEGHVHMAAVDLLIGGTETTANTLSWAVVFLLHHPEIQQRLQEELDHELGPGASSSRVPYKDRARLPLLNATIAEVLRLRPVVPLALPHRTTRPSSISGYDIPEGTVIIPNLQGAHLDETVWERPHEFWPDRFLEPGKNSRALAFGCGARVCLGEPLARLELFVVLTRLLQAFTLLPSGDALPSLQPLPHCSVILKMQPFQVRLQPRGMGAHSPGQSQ
Protocol: Proceeding using methods similar to those described in Biological Example 11, the percent inhibition at 100 nM was measured.
This assay was used to determine compound activity against Cyp21 enzyme. Human HEK 293-Cyp21 stable transfected cells (maintained in complete growth media DMEM+10% FBS, supplemented with 125 ug/mL Hygromycin) were seeded in a 96-well plate at 20,000 cells/well/100 uL in DMEM plus 10% FBS and allowed to attach overnight. The next day, 20 μL medium was carefully removed and 10 μL of 10× pre-made compounds in DMEM+10% FBS+10% methanol was transferred to the wells to final concentrations of 1000, 100, 10, 1, or 0.1 nM. Mock treatment was 1% methanol in growth media and the cells were left at 37° C., 5% CO2 for 5 hr. After the incubation, 10 μL of substrate progesterone (Sigma) was added to the wells to make a final concentration of 10 μM. The cells were incubated the cells at 37° C. for 20 hr. At the end of incubation, 90 μL of conditioned media was removed to measure DOC level by ELISA.
Preparation of the DOC ELISA: 100 μL of coating buffer (0.025M PBS pH 7.4) containing 200 ng/mL DOC-3-carboxymethyloxime-BSA (Steraloids. inc, Cat#3469-000) was added to each well of a 96-well plate and incubated overnight at 4° C. The next day, the plates were washed twice with 250 μl of wash solution (0.015M PBS pH 7.4 containing 0.05% Tween 20). After being washed, the wells were blocked with 250 μL blocking buffer (3% BSA in 0.025M PBS, pH 7.4) at 37° C. for 2 h. The plates were washed again 3 times as before, and then 90 μL of sample /standards (prepared in complete growth media) was added into the appropriate wells followed by 10 μL of antibody solution (1:450 rabbit anti-DOC in 0.6% BSA/PBS). The plates were incubated at room temperature for 2 h on a shaker. The contents of the wells were removed and the plate was washed 4 times. After the final wash, 100 μL of secondary antibody (1:12000 HRP-goat-anti-rabbit IgG conjugate 0.6% BSA/PBS) was added into each well. The plate was incubated at 30° C. for 45 min. The plate was washed again 4 times and 100 μL of TMB substrate solution was added to each well. The plate was incubated at room temperature for 10 min. 100 μL of stop solution was added to each well and the optical density was read at 450 nm.
The mean absorbance value for each sample was used to determine the corresponding concentration from the standard curve. Data was analyzed with “log(antagonist) vs response variable slope” under “non-linear regression analysis” using Prism5 software.

[3] = target: T2, CYP17 (human testicular microsome) (Homo sapiens, UniProt P05093); test: CYP17 enzymatic assay (% inhibition at 10 nM), version 1 (Biological Example 5); format: biochemical; conditions: 10 nM compound, DHEA by ELISA, read-out: Biological Example No. 5: CYP17 percent inhibition at 10 nM (version 1)
T2 construct: using microsomal fraction from human testis (Celsis Cat #S00110) as the enzyme source; tissue Celsis S00110; host or cells: human testis microsomal fraction
T2 sequence (P05093 1-508): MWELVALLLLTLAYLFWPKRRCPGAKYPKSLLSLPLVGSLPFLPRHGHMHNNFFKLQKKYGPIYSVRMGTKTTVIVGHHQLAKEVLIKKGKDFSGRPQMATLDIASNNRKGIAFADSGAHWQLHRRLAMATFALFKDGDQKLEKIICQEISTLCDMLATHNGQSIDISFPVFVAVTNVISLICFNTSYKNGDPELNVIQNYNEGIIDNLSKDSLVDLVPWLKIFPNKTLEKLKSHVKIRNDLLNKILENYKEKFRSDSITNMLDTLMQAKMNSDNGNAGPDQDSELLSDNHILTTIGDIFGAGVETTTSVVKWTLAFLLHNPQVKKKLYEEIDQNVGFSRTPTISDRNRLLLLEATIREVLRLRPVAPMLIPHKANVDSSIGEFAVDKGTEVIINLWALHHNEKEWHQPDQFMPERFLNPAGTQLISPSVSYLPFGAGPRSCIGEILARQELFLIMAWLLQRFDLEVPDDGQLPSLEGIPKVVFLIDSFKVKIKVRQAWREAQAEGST

[4] = target: T2, CYP17 (human testicular microsome); test: CYP17 enzymatic assay (IC50) (Biological Example 4); format: biochemical
[5] = Human liver microsome stability assay (Biological Example 8b); conditions: liver microsomes, pH 7.4
Protocol: The reaction was started with addition of excess NADPH (5 mg/mL, 15 μL in 0.1 M potassium phosphate buffer, 1.0 mM EDTA, pH 7.4), the total volume is 45 μL (compound final concentration was 1 μM). […] 50 μL of the supernatant was transferred from each well into a 96-well sample plate containing 50 μL of ultra-pure water (Millipore) for LC-MS/MS analysis.

[6] = target: T2, CYP17 (human testicular microsome); test: CYP17 enzymatic assay (% inhibition at 1 nM) (Biological Example 12); format: biochemical; conditions: compound at 1 nM, read-out: CYP17 enzymatic assay % inhibition at 1 nM (Biological Example No. 12)
[7] = 100 nM compound, read-out: Biological Example No. 10: CYP21-HEK293 percent inhibition at 100 nM
[8] = compound at 100 nM, read-out: CYP21-HEK293 enzymatic assay % inhibition at 100 nM (Biological Example No. 10)
[9] = human testicular microsome, DHEA by ELISA, read-out: Biological Example No. 4: CYP17 enzymatic assay IC50
[10] = human testicular microsome, read-out: CYP17 enzymatic assay IC50 (Biological Example No. 4)

SMILES	Biological Example No. 9: CYP11B percent inhibition at 100 nM [1]	inhibition at 0.1 µM [2, 7]	inhibition at 0.01 µM [3]	pIC50 [4]	half-life at 1 μM [5]	CYP11B enzymatic assay % inhibition at 100 nM (Biological Example No. 9) [1]	inhibition at 0.001 µM [6]	inhibition at 0.1 µM [2, 8]	pIC50 [4, 9]	pIC50 [4, 10]
C[C@]12CC[C@H]3[C@@H](CC[C@H]4CC(=O)CC[C@@]43C)C1=CC=C2n1ccnc1 [Compound 171]	T (T means the compound had a percent inhibition of less than 32% when tested at 100 nM)	< 30%	> 80%	> 7.96	1 to 50 min					
C[C@]12CC[C@H]3[C@@H](CC=C4C[C@H](NC(=O)C5CC5)CC[C@@]43C)C1=CC=C2n1ccnc1 [Compound 246, N-((3R,10R,13S)-17-(1H-imidazol-1-yl)-10,13-dimethyl-2,3,4,7,8,9,10,11,12,13-decahydro-1H-cyclopenta[a]phenanthren-3-yl)cyclopropanecarboxamide]						U (U means the compound had a percent inhibition of greater than or equal to 32%)	10 to 50%	< 30%		
C[C@]12CCCCC1C(=O)C[C@@H]1[C@@H]2CC[C@]2(C)C(n3ccnc3)=CC[C@@H]12 (stereo partly drawn) [Compound 88, (10R,13S)-17-(1H-imidazol-1-yl)-10,13-dimethyl-2,3,4,5,7,8,9,11,12,13,14,15-dodecahydro-1H-cyclopenta[a]phenanthren-6(10H)-one]	T (T means the compound had a percent inhibition of less than 32% when tested at 100 nM)	< 30%	> 80%						> 7.96	
CN1CC=C2CC[C@@H]3[C@H](CC[C@]4(C)C(n5ccnc5)=CC[C@@H]34)[C@@]2(C)CC1 [Compound 151]	T (T means the compound had a percent inhibition of less than 32% when tested at 100 nM)	< 30%	1 to 50%							
COC(=O)NC1CC[C@@]2(C)C(=CCC3C2CC[C@]2(C)C(n4ccnc4)=CCC32)C1 (stereo partly drawn) [Compound 239, methyl ((10R,13S)-17-(1H-imidazol-1-yl)-10,13-dimethyl-2,3,4,7,8,9,10,11,12,13,14,15-dodecahydro-1H-cyclopenta[a]phenanthren-3-yl)carbamate]						T (T means the compound had a percent inhibition of less than 32% when tested at 100 nM)	> 50%	< 30%		> 7.96
C[C@]12CCC(NC(=O)C3CC3)CC1=CCC1C2CC[C@]2(C)C(n3ccnc3)=CCC12 (stereo partly drawn) [Compound 238, N-((10R,13S)-17-(1H-imidazol-1-yl)-10,13-dimethyl-2,3,4,7,8,9,10,11,12,13,14,15-dodecahydro-1H-cyclopenta[a]phenanthren-3-yl)cyclopropanecarboxamide]					1 to 50 min	U (U means the compound had a percent inhibition of greater than or equal to 32%)	> 50%	< 30%		> 7.96
C[C@]12CCC(=O)NC=C1CCC1C2CC[C@]2(C)C(n3cnnn3)=CCC12 (stereo partly drawn) [Compound 156, (5aR,7aS)-5a,7a-dimethyl-8-(1H-tetrazol-1-yl)-4,5,5a,5b,6,7,7a,10,10a,10b,11,12-dodecahydrocyclopenta[5,6]naphtho[2,1-c]azepin-3(2H)-one]	U (U means the compound had a percent inhibition of greater than or equal to 32%)	< 30%								
CC(=O)N[C@@H]1CC[C@@]2(C)C(=CC[C@H]3C4=CC=C(n5ccnc5)[C@@]4(C)CC[C@@H]32)C1 [Compound 245, N-((3R,10R,13S)-17-(1H-imidazol-1-yl)-10,13-dimethyl-2,3,4,7,8,9,10,11,12,13-decahydro-1H-cyclopenta[a]phenanthren-3-yl)acetamide]						T (T means the compound had a percent inhibition of less than 32% when tested at 100 nM)	10 to 50%	< 30%		
CN1CC=C2CC[C@@H]3[C@H](CC[C@]4(C)C(c5cccnc5)=CC[C@@H]34)[C@@]2(C)CC1 [Compound 147, (5aR,7aS)-2,5a,7a-trimethyl-8-(pyridin-3-yl)-2,3,4,5,5a,5b,6,7,7a,10,10a,10b,11,12-tetradecahydrocyclopenta[5,6]naphtho[2,1-c]azepine]	na (“na” means the compound was not active under the conditions tested)	< 30%	1 to 50%							
C[C@]12CC[C@H]3[C@@H](CCN4C(=O)CCCC[C@]34C)[C@@H]1CC=C2c1cccnc1 [Compound 38, (11aR,13aS)-11a,13a-dimethyl-1-(pyridin-3-yl)-3b,4,5,8,9,10,11,11a,11b,12,13,13a-dodecahydro-3H-azepino[2,1-a]cyclopenta[f]isoquinolin-7(3aH)-one]	na (“na” means the compound was not active under the conditions tested)	< 30%	50 to 80%						> 7.96	
C[C@]12CC[C@H]3[C@@H](CCN4CCCCC[C@]34C)[C@@H]1CC=C2c1cccnc1 [Compound 44, (11aR,13aS)-11a,13a-dimethyl-1-(pyridin-3-yl)-3a,3b,4,5,7,8,9,10,11,11a,11b,12,13,13a-tetradecahydro-3H-azepino[2,1-a]cyclopenta[f]isoquinoline]	na (“na” means the compound was not active under the conditions tested)	< 30%	1 to 50%							
